These results are taken from US6737076B2, “Hypoallergenic composition containing tolerogenic peptides” (Nestec S.A., priority 1999, dated 2004).

The test system of experiment [1] is anti-β-LG IgE. Kind of experiment: Seric anti-β-LG IgE by ELISA after oral tolerance induction and immunization. Conditions: synthetic peptides, 20 mcg/g of body weight; control 3.39. It is filed as in vivo, mice. As for the experimental part: (§1) Female Balb/c mice were obtained from IFFA-Crédo (L'Abresle, France). They were all bred and raised on a milk free diet. The mice were 3 weeks old at the start of the experiments.
(§2) Gavages were orally administered to the mice at age 22 days, by gastric feeding of native β-LG (5 mg/g of body weight), various amounts of TTH β-LG, or various amounts of the different β-LG peptidic fractions. Control mice were fed saline water. 5 days later, all mice were immunized β-LG and OVA (Ovalbumin, grade V, Sigma), as a non-related antigen for testing the specificity of the immune response, 21 days after systemic challenge, a Delayed Type Hypersensitivity (DTH) evaluation was done by duplicate thickness measures of the left, rear footpad prior to, and following, immunization with β-LG.
(§3) 24 hours after DTH immunization, individual increases in foot pad thickness of those injected the day before were measured. […] Specific IgE against β-LG and against OVA were determined both in seric and intestinal samples.
Serum and intestinal fluid dilutions were assayed in duplicate for anti-β-LG and anti-OVA IgE antibodies by ELISA. […] Titers were determined by calculating the dilution of the sample that gave twice the absorbance of the negative control. Titers were expressed as the log10 of the reciprocal of the dilution. […]
For orientation: ELISA stands for enzyme-linked immunosorbent assay.

Experiment [2] relates to β-LG epitopes. Kind of experiment: ELISA inhibition, β-LG IgG binding capacity (residual β-LG epitopes, antigenicity). The procedure:
An ELISA inhibition was used to determine β-LG epitopes in β-LG hydrolysate and in β-LG fractions. β-lactoglobulin titers were calculated from a 5-fold dilution β-LG standard curve run on each plate.

In experiment [3] the test system is GLM. Kind of experiment: Lymphocyte proliferation stimulation index (GLM) after oral peptide feeding. It is filed as in vivo, mice. Conditions: synthetic peptides, 20 mcg/g of body weight. As for the experimental part:
(§4) Spleen cell solutions were homogenized and purified. Cells were cocultured in the presence of β-LG or of phytohaemagglutinin A. (^3H)Tdr (Amersham, Zurich) was added in the final 6 hours of culture and the plates were harvested and analyzed by scintillation counting. Stimulation indices were calculated as the ratio of blank-subtracted test and control values expressed as the mean cpm (^3H)Tdr incorporation by triplicate cultures.
(§5) The tolerogenic peptides T6 and T17 contained in tolerogenic fraction F2 were synthetically prepared. T13 contained in a non tolerogenic fraction was also synthesized as a negative control. Oral tolerance induction of these peptides were tested in […] mice as described in example 1c) except that the dose is of 20 mcg/g of body weight.

Experiment [4] has as its system Balb/c mice. Kind of experiment: Oral tolerance induction mouse model, overall tolerogenic properties. It is filed as in vivo. Conditions: oral administration of synthetic peptides, 20 mcg/g of body weight. The procedure:
as §1, §2, §3
Qualitative responses of the tolerogenic properties generated from feeding the different fraction groups at two different concentrations (0.5 or 0.125 mg/g of body weight) were evaluated. Induction or absence of induction of tolerogenic responses to β-LG has been determined by the statistical significance of the immune response. […]

The test system of experiment [5] is Spleen cell. Kind of experiment: Splenocyte specific proliferation assay with β-LG ((3H)Tdr incorporation) from fed mice. The following applies: 20 mcg/g of body weight; for cellular tolerance (specific inhibition of lymphocyte proliferation), in words: oral administration of synthetic peptides; for Stimulation index (rate): synthetic peptides. It is filed as in vivo.
From the text: FIG. 1 represents specific oral tolerance induction in mice fed once with either TTH β-LG, F2 or F(7+9). A: Humoral (dark bars) and mucosal (gray bars) anti-β-LG IgE response. B: β-LG-specific DTH response (●) are individual foot pad increments and (−) are means from 10 mice per group. C and D: Specific (β-LG) and non specific (PHA) proliferative responses of splenic cells. Splenic lymphocytes from mice fed with either saline (♦), TTH β-LG (▪), F2 (▴), or F (7+9) (●) were isolated and subsequently stimulated with decreasing concentrations of antigens. ^3H thymidine incorporation was measured after 120 hours of culture. (^3H)Tdr incorporation results were expressed in cpm, as a mean of triplicate cultures, the blank-subtracted mean was then plotted respectively against β-LG or PHA concentration.
24 hours after DTH immunization, individual increases in foot pad thickness of those injected the day before were measured. Differences between these two measurements were expressed in <thickness (millimeters) and used in group comparisons. Then, from all mice, blood samples were obtained, spleens were taken and pooled according to group of treatment. Splenocyte specific proliferation assays were performed for each group. Intestinal contents were individually collected. Serum and intestinal samples were rapidly frozen at −80° C., until assays. Specific IgE against β-LG and against OVA were determined both in seric and intestinal samples.
as §4, §5

On to “H2N-I-D-A-L-N-E-N-K-COOH (H-IDALNENK-OH) [T6]”, for which the “tolerized anti-LG IgE/ control (tolerized value)” value in experiment [1] is 3.24/3.39. Also, the “antigenicity (in words)” value in experiment [2] was “very low antigenicity”. Besides, the “Stimulation index (GLM)” value in experiment [3] came out at 0.285. Also, the “tolerance induction / tolerogenic potential (in words)” value in experiment [4] is listed as “high tolerogenic potential”. In experiment [5], the “cellular tolerance (specific inhibition of lymphocyte proliferation), in words” value is “induces a cellular tolerance” and the “Stimulation index (rate)” value worked out at 0.53.

Take H2N-V-L-V-L-D-T-D-Y-K,-K-COOH [T17]: the “tolerized anti-LG IgE/ control (tolerized value)” value in experiment [1] is reported as 2.67/3.39. Moreover, the “antigenicity (in words)” value in experiment [2] is given as “very low antigenicity”. In addition, the “Stimulation index (GLM)” value in experiment [3] stood at 0.405. Also, in experiment [4], the “tolerance induction / tolerogenic potential (in words)” value was “high tolerogenic potential”. Besides, in experiment [5], the “cellular tolerance (specific inhibition of lymphocyte proliferation), in words” value is reported as “induces a cellular tolerance” and the “Stimulation index (rate)” value turned out to be 0.305.
